Measured values taken from PubChem BioAssay (NCI).
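The concentration for 50% growth inhibition is given as GI50. TGI: concentration producing complete growth inhibition.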

Tests used:
Assay in all cases: NCI tumour cell line growth inhibition, 384-well format
RPMI-8226 leukemia = system: RPMI-8226 leukemia
MALME-3M melanoma = system: MALME-3M melanoma
MCF7 breast = system: MCF7 breast
UACC-257 melanoma = system: UACC-257 melanoma
CAKI-1 renal = system: CAKI-1 renal
NCI-H23 lung = system: NCI-H23 lung
UO-31 renal = system: UO-31 renal
786-0 renal = system: 786-0 renal
M14 melanoma = system: M14 melanoma
CCRF-CEM leukemia = system: CCRF-CEM leukemia
SK-MEL-28 melanoma = system: SK-MEL-28 melanoma
SF-539 CNS = system: SF-539 CNS
ACHN renal = system: ACHN renal
LOX IMVI melanoma = system: LOX IMVI melanoma
SNB-75 CNS = system: SNB-75 CNS
UACC-62 melanoma = system: UACC-62 melanoma
SW-620 colon = system: SW-620 colon
SK-MEL-5 melanoma = system: SK-MEL-5 melanoma
A498 renal = system: A498 renal
HOP-62 NSCLC = system: HOP-62 NSCLC
OVCAR-5 ovarian = system: OVCAR-5 ovarian
HS 578T breast = system: HS 578T breast
NCI/ADR-RES ovarian = system: NCI/ADR-RES ovarian
SN12C renal = system: SN12C renal
MDA-MB-468 breast = system: MDA-MB-468 breast
HL-60(TB) leukemia = system: HL-60(TB) leukemia
NCI-H522 lung = system: NCI-H522 lung
IGROV1 ovarian = system: IGROV1 ovarian
BT-549 breast = system: BT-549 breast
K-562 leukemia = system: K-562 leukemia
COLO 205 colon = system: COLO 205 colon
U251 glioblastoma = system: U251 glioblastoma
OVCAR-3 ovarian = system: OVCAR-3 ovarian
HOP-92 NSCLC = system: HOP-92 NSCLC
EKVX NSCLC = system: EKVX NSCLC
NCI-H226 lung = system: NCI-H226 lung
RXF 393 renal = system: RXF 393 renal
OVCAR-8 ovarian = system: OVCAR-8 ovarian
SR leukemia = system: SR leukemia
HCC-2998 colon = system: HCC-2998 colon
A549 NSCLC = system: A549 NSCLC
SF-295 CNS = system: SF-295 CNS
KM12 colon = system: KM12 colon
SNB-19 CNS = system: SNB-19 CNS
MDA-MB-435 melanoma = system: MDA-MB-435 melanoma
HT29 colon = system: HT29 colon
HCT-15 colon = system: HCT-15 colon
TK-10 renal = system: TK-10 renal
NCI-H322M lung = system: NCI-H322M lung
SK-OV-3 ovarian = system: SK-OV-3 ovarian
PC-3 prostate = system: PC-3 prostate
T-47D breast = system: T-47D breast
MDA-MB-231 breast = system: MDA-MB-231 breast
NCI-H460 NSCLC = system: NCI-H460 NSCLC
DU-145 prostate = system: DU-145 prostate
SF-268 CNS = system: SF-268 CNS
MOLT-4 leukemia = system: MOLT-4 leukemia
OVCAR-4 ovarian = system: OVCAR-4 ovarian
HCT-116 colon = system: HCT-116 colon

## O=C(NOCC1CC1)c1ccc(F)c(F)c1Nc1ccc(I)cc1Cl
RPMI-8226 leukemia
  GI50: 0.277 µM
  TGI: 1.78 µM
MALME-3M melanoma
  GI50: 0.017 µM
  TGI: 0.0448 µM
MCF7 breast
  GI50: 2.9 µM
  TGI: 10.7 µM
UACC-257 melanoma
  GI50: 0.046 µM
  TGI: 0.234 µM
CAKI-1 renal
  GI50: 1.03 µM
  TGI: 3.07 µM
NCI-H23 lung
  GI50: 0.246 µM
  TGI: 1.91 µM
UO-31 renal
  GI50: 2.34 µM
  TGI: > 100 µM
786-0 renal
  GI50: 1.86 µM
  TGI: 9.93 µM
M14 melanoma
  GI50: 0.0349 µM
  TGI: 0.176 µM
CCRF-CEM leukemia
  GI50: 1.8 µM
  TGI: 3.37 µM
SK-MEL-28 melanoma
  GI50: 0.0352 µM
  TGI: 0.208 µM
SF-539 CNS
  GI50: 1.62 µM
  TGI: 3.61 µM
ACHN renal
  GI50: 1.66 µM
  TGI: 15.4 µM
LOX IMVI melanoma
  GI50: 0.337 µM
  TGI: 1.69 µM
SNB-75 CNS
  GI50: 1.88 µM
  TGI: 9.45 µM
UACC-62 melanoma
  GI50: 0.04 µM
  TGI: 0.259 µM
SW-620 colon
  GI50: 0.105 µM
  TGI: 1.87 µM
SK-MEL-5 melanoma
  GI50: 0.104 µM
  TGI: 1.58 µM
A498 renal
  GI50: 1.69 µM
  TGI: 12.2 µM
HOP-62 NSCLC
  GI50: 0.868 µM
  TGI: 6.43 µM
OVCAR-5 ovarian
  GI50: 0.304 µM
  TGI: 2.65 µM
HS 578T breast
  GI50: 1.84 µM
  TGI: 6.16 µM
NCI/ADR-RES ovarian
  GI50: 1.74 µM
  TGI: 3.69 µM
SN12C renal
  GI50: 1.04 µM
  TGI: 4.43 µM
MDA-MB-468 breast
  GI50: 1.85 µM
  TGI: 3.55 µM
HL-60(TB) leukemia
  GI50: 0.0375 µM
  TGI: 0.808 µM
NCI-H522 lung
  GI50: 1.82 µM
  TGI: 4.09 µM
IGROV1 ovarian
  GI50: 1.08 µM
  TGI: 2.81 µM
BT-549 breast
  GI50: 2.73 µM
  TGI: 14.8 µM
K-562 leukemia
  GI50: 1.75 µM
  TGI: 10.7 µM
COLO 205 colon
  GI50: 0.0566 µM
  TGI: 1.01 µM
U251 glioblastoma
  GI50: 2.11 µM
  TGI: 8.04 µM
OVCAR-3 ovarian
  GI50: 1.64 µM
  TGI: 3.32 µM
HOP-92 NSCLC
  GI50: 1.06 µM
  TGI: 2.41 µM
EKVX NSCLC
  GI50: 1.72 µM
  TGI: 4.29 µM
NCI-H226 lung
  GI50: 1.18 µM
  TGI: 4.32 µM
RXF 393 renal
  GI50: 2.11 µM
  TGI: 11.6 µM
OVCAR-8 ovarian
  GI50: 1.92 µM
  TGI: 4.82 µM
SR leukemia
  GI50: 1.65 µM
  TGI: 3.26 µM
HCC-2998 colon
  GI50: 0.0847 µM
  TGI: 0.54 µM
A549 NSCLC
  GI50: 1.03 µM
  TGI: 3.84 µM
SF-295 CNS
  GI50: 2.25 µM
  TGI: 6.09 µM
KM12 colon
  GI50: 0.414 µM
  TGI: 3.93 µM
SNB-19 CNS
  GI50: 1.34 µM
  TGI: 5.8 µM
MDA-MB-435 melanoma
  GI50: 0.11 µM
  TGI: 6.03 µM
HT29 colon
  GI50: 0.279 µM
  TGI: 10.3 µM
HCT-15 colon
  GI50: 2.29 µM
  TGI: 11.5 µM
TK-10 renal
  GI50: 1.91 µM
  TGI: 5.84 µM
NCI-H322M lung
  GI50: 1.23 µM
  TGI: 6.8 µM
SK-OV-3 ovarian
  GI50: 3.16 µM
  TGI: 13.3 µM
PC-3 prostate
  GI50: 3.5 µM
  TGI: 11.8 µM
T-47D breast
  GI50: 2.35 µM
  TGI: 7.06 µM
MDA-MB-231 breast
  GI50: 0.896 µM
  TGI: 2.96 µM
NCI-H460 NSCLC
  GI50: 1.38 µM
  TGI: 11.4 µM
DU-145 prostate
  GI50: 3.49 µM
  TGI: 15.3 µM
SF-268 CNS
  GI50: 3.18 µM
  TGI: 14.7 µM
MOLT-4 leukemia
  GI50: 1.65 µM
  TGI: 3.02 µM
OVCAR-4 ovarian
  GI50: 1.49 µM
  TGI: 5.03 µM

## Cc1ccc2c(=O)c3cccc(CC(=O)O)c3oc2c1C
RPMI-8226 leukemia
  GI50: > 100 µM
  TGI: > 100 µM
MALME-3M melanoma
  GI50: > 100 µM
  TGI: > 100 µM
MCF7 breast
  GI50: > 100 µM
  TGI: > 100 µM
UACC-257 melanoma
  GI50: > 100 µM
  TGI: > 100 µM
CAKI-1 renal
  GI50: > 100 µM
  TGI: > 100 µM
NCI-H23 lung
  GI50: > 100 µM
  TGI: > 100 µM
UO-31 renal
  GI50: > 100 µM
  TGI: > 100 µM
786-0 renal
  GI50: > 100 µM
  TGI: > 100 µM
M14 melanoma
  GI50: > 100 µM
  TGI: > 100 µM
CCRF-CEM leukemia
  GI50: > 100 µM
  TGI: > 100 µM
SK-MEL-28 melanoma
  GI50: > 100 µM
  TGI: > 100 µM
SF-539 CNS
  GI50: > 100 µM
  TGI: > 100 µM
ACHN renal
  GI50: > 100 µM
  TGI: > 100 µM
HCT-116 colon
  GI50: > 100 µM
  TGI: > 100 µM
LOX IMVI melanoma
  GI50: > 100 µM
  TGI: > 100 µM
SNB-75 CNS
  GI50: > 100 µM
  TGI: > 100 µM
UACC-62 melanoma
  GI50: > 100 µM
  TGI: > 100 µM
SW-620 colon
  GI50: > 100 µM
  TGI: > 100 µM
SK-MEL-5 melanoma
  GI50: > 100 µM
  TGI: > 100 µM
A498 renal
  GI50: > 100 µM
  TGI: > 100 µM
HOP-62 NSCLC
  GI50: > 100 µM
  TGI: > 100 µM
HS 578T breast
  GI50: > 100 µM
  TGI: > 100 µM
NCI/ADR-RES ovarian
  GI50: > 100 µM
  TGI: > 100 µM
SN12C renal
  GI50: > 100 µM
  TGI: > 100 µM
MDA-MB-468 breast
  GI50: > 100 µM
  TGI: > 100 µM
HL-60(TB) leukemia
  GI50: > 100 µM
  TGI: > 100 µM
NCI-H522 lung
  GI50: > 100 µM
  TGI: > 100 µM
IGROV1 ovarian
  GI50: > 100 µM
  TGI: > 100 µM
BT-549 breast
  GI50: > 100 µM
  TGI: > 100 µM
K-562 leukemia
  GI50: > 100 µM
  TGI: > 100 µM
COLO 205 colon
  GI50: > 100 µM
  TGI: > 100 µM
U251 glioblastoma
  GI50: > 100 µM
  TGI: > 100 µM
OVCAR-3 ovarian
  GI50: > 100 µM
  TGI: > 100 µM
HOP-92 NSCLC
  GI50: > 100 µM
  TGI: > 100 µM
EKVX NSCLC
  GI50: > 100 µM
  TGI: > 100 µM
NCI-H226 lung
  GI50: > 100 µM
  TGI: > 100 µM
RXF 393 renal
  GI50: > 100 µM
  TGI: > 100 µM
OVCAR-8 ovarian
  GI50: > 100 µM
  TGI: > 100 µM
HCC-2998 colon
  GI50: > 100 µM
  TGI: > 100 µM
A549 NSCLC
  GI50: > 100 µM
  TGI: > 100 µM
SF-295 CNS
  GI50: > 100 µM
  TGI: > 100 µM
KM12 colon
  GI50: > 100 µM
  TGI: > 100 µM
SNB-19 CNS
  GI50: > 100 µM
  TGI: > 100 µM
MDA-MB-435 melanoma
  GI50: > 100 µM
  TGI: > 100 µM
HT29 colon
  GI50: > 100 µM
  TGI: > 100 µM
HCT-15 colon
  GI50: > 100 µM
  TGI: > 100 µM
TK-10 renal
  GI50: > 100 µM
  TGI: > 100 µM
NCI-H322M lung
  GI50: > 100 µM
  TGI: > 100 µM
SK-OV-3 ovarian
  GI50: > 100 µM
  TGI: > 100 µM
PC-3 prostate
  GI50: > 100 µM
  TGI: > 100 µM
T-47D breast
  GI50: > 100 µM
  TGI: > 100 µM
MDA-MB-231 breast
  GI50: > 100 µM
  TGI: > 100 µM
NCI-H460 NSCLC
  GI50: > 100 µM
  TGI: > 100 µM
DU-145 prostate
  GI50: > 100 µM
  TGI: > 100 µM
SF-268 CNS
  GI50: > 100 µM
  TGI: > 100 µM
MOLT-4 leukemia
  GI50: > 100 µM
  TGI: > 100 µM
OVCAR-4 ovarian
  GI50: > 100 µM
  TGI: > 100 µM
